# Measured values as given in ChEMBL document CHEMBL2062364, “Discovery and optimization of new benzimidazole- and benzoxazole-pyrimidone selective PI3Kβ inhibitors for the treatment of phosphatase and TENsin homologue (PTEN)-deficient cancers” (J Med Chem, 2012).
# Key:
# [1] = biological target: T1, Phosphatidylinositol 4,5-bisphosphate 3-kinase catalytic subunit beta isoform (Homo sapiens, UniProt P42338); assay: Inhibition of human PI3Kbeta-mediated Akt phosphorylation at Ser473 residue expressed in PTEN-deficient human PC3 cells by chemiluminescence assay; format: cell-based, PC-3
# T1 sequence (P42338 whole entry, canonical isoform): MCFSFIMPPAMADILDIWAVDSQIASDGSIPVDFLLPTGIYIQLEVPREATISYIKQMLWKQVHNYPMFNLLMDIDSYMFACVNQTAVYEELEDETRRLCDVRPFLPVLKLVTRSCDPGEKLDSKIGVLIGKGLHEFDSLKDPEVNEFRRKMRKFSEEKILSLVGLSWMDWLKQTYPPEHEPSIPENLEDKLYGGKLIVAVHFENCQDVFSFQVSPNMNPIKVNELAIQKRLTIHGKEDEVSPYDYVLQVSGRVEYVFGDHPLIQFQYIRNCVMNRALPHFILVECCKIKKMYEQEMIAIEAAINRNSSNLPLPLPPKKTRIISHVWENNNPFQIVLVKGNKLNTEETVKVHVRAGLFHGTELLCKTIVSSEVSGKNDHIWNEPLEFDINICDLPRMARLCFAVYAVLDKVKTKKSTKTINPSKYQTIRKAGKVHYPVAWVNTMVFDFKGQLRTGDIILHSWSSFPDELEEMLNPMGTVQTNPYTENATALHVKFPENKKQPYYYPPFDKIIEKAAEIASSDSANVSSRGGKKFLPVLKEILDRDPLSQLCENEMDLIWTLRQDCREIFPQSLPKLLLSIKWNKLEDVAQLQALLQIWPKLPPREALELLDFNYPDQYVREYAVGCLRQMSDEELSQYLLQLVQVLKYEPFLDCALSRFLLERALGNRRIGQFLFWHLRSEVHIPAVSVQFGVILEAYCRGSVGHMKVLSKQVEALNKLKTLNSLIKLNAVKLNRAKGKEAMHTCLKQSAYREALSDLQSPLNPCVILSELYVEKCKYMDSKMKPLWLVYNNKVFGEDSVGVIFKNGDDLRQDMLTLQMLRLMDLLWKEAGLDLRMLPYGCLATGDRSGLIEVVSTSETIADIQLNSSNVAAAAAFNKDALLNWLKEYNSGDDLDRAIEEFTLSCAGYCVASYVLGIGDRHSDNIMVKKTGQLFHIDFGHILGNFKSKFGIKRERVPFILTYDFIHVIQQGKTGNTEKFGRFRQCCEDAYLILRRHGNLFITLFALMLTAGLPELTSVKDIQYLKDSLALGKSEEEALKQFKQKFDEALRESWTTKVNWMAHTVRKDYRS
# [2] = Thermodynamic solubility of the compound in phosphate buffer at pH 7.4 after 16 hrs by HPLC analysis; format: physicochemical; conditions: read-out: Therm_solubility
# [3] = biological target: T2, Phosphatidylinositol 4,5-bisphosphate 3-kinase catalytic subunit delta isoform (Homo sapiens, UniProt O00329); assay: Inhibition of poly-His tagged human PI3Kdelta expressed in baculovirus infected insect sf9 cells coexpressing p85alpha using PI(4,5)P2 as substrate preincubated with compound for 15 mins measured after 10 mins by HTRF assay
# T2 sequence (O00329 whole entry): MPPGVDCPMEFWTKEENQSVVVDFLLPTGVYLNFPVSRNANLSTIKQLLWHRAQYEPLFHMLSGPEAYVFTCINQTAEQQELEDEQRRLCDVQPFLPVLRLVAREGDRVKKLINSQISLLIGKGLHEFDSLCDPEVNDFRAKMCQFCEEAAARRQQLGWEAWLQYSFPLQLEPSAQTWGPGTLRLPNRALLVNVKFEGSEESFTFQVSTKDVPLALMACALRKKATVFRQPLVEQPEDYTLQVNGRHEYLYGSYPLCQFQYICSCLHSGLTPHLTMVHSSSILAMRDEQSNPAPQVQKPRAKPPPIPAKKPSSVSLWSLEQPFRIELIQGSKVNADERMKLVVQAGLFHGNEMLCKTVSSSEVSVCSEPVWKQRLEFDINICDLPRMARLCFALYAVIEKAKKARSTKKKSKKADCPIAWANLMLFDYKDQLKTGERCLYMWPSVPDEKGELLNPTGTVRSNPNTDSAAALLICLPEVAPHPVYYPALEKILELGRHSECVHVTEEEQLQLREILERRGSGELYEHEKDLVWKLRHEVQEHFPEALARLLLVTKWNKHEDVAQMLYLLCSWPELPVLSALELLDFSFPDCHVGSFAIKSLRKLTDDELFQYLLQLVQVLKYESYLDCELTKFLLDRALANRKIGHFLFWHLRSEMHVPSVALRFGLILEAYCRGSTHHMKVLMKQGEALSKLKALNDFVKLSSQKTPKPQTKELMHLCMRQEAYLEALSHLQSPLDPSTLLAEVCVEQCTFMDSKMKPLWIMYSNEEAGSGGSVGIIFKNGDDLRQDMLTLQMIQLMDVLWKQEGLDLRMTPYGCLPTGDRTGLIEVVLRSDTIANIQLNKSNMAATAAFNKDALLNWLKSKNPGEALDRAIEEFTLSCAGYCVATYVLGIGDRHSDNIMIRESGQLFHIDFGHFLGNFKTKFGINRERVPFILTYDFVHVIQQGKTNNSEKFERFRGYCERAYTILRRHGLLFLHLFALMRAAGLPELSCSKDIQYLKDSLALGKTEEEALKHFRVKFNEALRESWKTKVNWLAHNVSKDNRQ
# [4] = Drug metabolism in human liver microsomes; format: ADME, Microsome; conditions: read-out: Drug metabolism
# [5] = biological target: T1, Phosphatidylinositol 4,5-bisphosphate 3-kinase catalytic subunit beta isoform; assay: Inhibition of N-terminus poly-His tagged human PI3Kbeta expressed in baculovirus infected insect […] cells coexpressing p85alpha using PI(4,5)P2 as substrate preincubated with compound for 15 mins measured after 10 mins by HTRF assay
# [6] = biological target: Phosphatidylinositol 4,5-bisphosphate 3-kinase catalytic subunit gamma isoform (Homo sapiens, UniProt P48736); assay: Inhibition of N-terminus poly-His tagged human PI3Kgamma expressed in baculovirus infected insect sf9 cells using PI(4,5)P2 as substrate preincubated with compound for 15 mins measured after 10 mins by HTRF assay
# Sequence of Phosphatidylinositol 4,5-bisphosphate 3-kinase catalytic subunit gamma isoform (P48736 whole entry, canonical isoform): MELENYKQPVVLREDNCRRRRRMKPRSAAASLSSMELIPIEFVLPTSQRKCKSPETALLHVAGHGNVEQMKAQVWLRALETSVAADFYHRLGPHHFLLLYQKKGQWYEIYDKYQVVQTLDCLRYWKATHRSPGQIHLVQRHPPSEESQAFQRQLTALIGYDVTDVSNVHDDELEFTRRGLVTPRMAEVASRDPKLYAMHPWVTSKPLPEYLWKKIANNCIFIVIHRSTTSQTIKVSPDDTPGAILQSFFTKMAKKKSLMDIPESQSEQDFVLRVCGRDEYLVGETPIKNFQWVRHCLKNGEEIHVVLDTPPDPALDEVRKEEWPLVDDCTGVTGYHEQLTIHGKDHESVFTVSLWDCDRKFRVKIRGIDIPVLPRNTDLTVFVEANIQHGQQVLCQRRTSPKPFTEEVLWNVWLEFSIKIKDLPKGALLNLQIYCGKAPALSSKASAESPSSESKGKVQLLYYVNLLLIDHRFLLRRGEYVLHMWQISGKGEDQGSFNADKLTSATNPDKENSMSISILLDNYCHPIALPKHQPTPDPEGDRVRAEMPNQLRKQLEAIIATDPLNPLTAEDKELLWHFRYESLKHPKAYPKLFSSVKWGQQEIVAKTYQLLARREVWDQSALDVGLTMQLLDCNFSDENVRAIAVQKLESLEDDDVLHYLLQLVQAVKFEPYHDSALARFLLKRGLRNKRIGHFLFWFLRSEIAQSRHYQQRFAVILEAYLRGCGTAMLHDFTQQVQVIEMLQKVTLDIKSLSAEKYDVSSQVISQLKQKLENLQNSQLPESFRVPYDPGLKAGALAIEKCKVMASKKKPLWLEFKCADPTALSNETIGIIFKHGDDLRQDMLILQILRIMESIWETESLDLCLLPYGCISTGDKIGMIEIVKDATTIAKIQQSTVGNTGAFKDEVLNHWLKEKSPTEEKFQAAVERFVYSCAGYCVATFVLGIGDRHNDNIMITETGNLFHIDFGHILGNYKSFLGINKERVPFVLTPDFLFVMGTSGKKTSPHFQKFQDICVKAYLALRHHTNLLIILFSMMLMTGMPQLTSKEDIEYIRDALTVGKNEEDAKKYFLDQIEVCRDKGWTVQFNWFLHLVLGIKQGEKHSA
# [7] = biological target: Serine/threonine-protein kinase mTOR (Homo sapiens, UniProt P42345); assay: Inhibition of mTOR
# Cytochrome P450 3A4 = Cytochrome P450 3A4 (Homo sapiens, UniProt P08684); assay: Inhibition of human recombinant CPY3A4
# Sequence of Cytochrome P450 3A4 (P08684 whole entry): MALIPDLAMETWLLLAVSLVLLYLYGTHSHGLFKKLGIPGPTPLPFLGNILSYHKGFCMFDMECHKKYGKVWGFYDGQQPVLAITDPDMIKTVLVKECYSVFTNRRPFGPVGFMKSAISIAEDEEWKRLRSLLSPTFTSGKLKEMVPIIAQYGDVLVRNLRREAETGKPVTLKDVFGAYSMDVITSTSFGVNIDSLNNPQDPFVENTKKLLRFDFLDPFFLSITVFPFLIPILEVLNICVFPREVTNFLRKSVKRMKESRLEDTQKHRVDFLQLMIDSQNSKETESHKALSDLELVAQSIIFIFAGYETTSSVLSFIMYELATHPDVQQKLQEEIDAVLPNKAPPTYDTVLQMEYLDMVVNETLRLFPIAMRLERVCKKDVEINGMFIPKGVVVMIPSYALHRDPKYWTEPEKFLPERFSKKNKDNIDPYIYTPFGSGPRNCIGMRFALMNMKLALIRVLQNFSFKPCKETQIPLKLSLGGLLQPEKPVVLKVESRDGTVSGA
# [8] = Apparent permeability of the compound across human Caco2 cells; format: ADME, cell-based; conditions: Caco-2
# [9] = Drug metabolism in mouse liver microsomes; format: ADME, Microsome; conditions: read-out: Drug metabolism
# [10] = biological target: Phosphatidylinositol 4,5-bisphosphate 3-kinase catalytic subunit alpha isoform (Homo sapiens, UniProt P42336); assay: Inhibition of N-terminus poly-His tagged human PI3Kalpha expressed in baculovirus infected insect sf9 cells coexpressing p85alpha using PI(4,5)P2 as substrate preincubated with compound for 15 mins measured after 10 mins by HTRF assay
# Sequence of Phosphatidylinositol 4,5-bisphosphate 3-kinase catalytic subunit alpha isoform (P42336 whole entry, canonical isoform): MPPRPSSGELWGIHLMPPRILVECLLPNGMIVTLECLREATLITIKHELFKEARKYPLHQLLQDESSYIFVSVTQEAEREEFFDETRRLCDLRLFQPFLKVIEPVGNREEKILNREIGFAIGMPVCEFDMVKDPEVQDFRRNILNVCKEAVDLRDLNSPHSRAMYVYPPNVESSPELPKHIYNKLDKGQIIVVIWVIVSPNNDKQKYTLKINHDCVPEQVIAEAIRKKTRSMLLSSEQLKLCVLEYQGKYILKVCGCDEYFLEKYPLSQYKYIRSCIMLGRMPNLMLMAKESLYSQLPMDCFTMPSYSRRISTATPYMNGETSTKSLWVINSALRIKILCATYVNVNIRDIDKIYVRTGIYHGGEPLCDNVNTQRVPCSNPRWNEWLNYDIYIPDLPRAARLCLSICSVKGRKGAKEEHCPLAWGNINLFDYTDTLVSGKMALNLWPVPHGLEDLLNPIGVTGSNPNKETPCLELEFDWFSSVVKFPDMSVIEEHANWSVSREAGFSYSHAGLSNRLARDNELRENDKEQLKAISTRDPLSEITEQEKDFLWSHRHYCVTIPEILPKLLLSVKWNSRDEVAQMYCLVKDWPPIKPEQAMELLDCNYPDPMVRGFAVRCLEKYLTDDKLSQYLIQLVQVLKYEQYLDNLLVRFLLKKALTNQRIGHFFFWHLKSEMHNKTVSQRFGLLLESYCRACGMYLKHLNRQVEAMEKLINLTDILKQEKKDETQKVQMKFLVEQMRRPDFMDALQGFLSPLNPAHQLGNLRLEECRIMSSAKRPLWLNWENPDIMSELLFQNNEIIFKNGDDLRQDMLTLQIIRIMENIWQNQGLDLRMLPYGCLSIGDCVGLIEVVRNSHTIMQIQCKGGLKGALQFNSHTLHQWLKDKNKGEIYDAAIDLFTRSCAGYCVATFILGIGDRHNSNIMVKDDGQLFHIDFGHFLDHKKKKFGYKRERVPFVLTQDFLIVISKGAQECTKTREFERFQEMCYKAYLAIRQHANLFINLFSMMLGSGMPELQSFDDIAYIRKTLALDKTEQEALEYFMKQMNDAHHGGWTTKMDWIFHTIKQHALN
IC50 [1],solubility thermodynamic at 16 h [2],IC50 [3],metabolised [4],IC50 [5],IC50 [6],IC50 [7],IC50 (Cytochrome P450 3A4),Papp [8],metabolised [9],IC50 [10],Compound
6 nM,15 µM,151 nM,18%,8 nM,> 10000 nM,> 10000 nM,> 40000 nM,37.1 ×10⁻⁶ cm/s,17%,> 10000 nM,O=c1cc(N2CCOCC2)nc(Cc2nc3c(-c4ccccc4)c(F)ccc3o2)[nH]1
142 nM,–,21 nM,97%,90 nM,> 10000 nM,> 10000 nM,> 40000 nM,1.5 ×10⁻⁶ cm/s,96%,8400 nM,O=c1cc(N2CCOCC2)nc(Cc2nc3ccccc3n2C2CCCCC2)[nH]1
961 nM,–,2850 nM,–,386 nM,> 10000 nM,> 10000 nM,–,–,–,> 10000 nM,O=c1cc(N2CCOCC2)nc(Cc2nc3ccc(C(F)(F)F)cc3[nH]2)[nH]1
289 nM,–,1060 nM,–,290 nM,> 10000 nM,> 10000 nM,–,–,–,> 10000 nM,Cn1c(Cc2nc(N3CCOCC3)cc(=O)[nH]2)nc2ccc(F)cc21
47 nM,–,995 nM,–,158 nM,> 10000 nM,> 10000 nM,–,–,–,> 10000 nM,O=c1cc(N2CCOCC2)nc(Cc2nc3c(-c4ccncc4)cccc3o2)[nH]1
–,–,–,–,1330 nM,–,> 10000 nM,–,–,–,> 10000 nM,Cn1c(Cc2nc3ccccc3o2)nc(N2CCOCC2)cc1=O
26 nM,–,274 nM,41%,57 nM,> 10000 nM,> 10000 nM,> 40000 nM,11.4 ×10⁻⁶ cm/s,40%,314 nM,Cn1c(Cc2nc(N3CCOCC3)cc(=O)[nH]2)nc2c(-c3ccccc3)cccc21
–,–,3410 nM,–,3410 nM,> 10000 nM,> 10000 nM,–,–,–,7800 nM,Cn1c(Cc2nc(N3CCOCC3)cc(=O)[nH]2)nc2ccc(-c3ccccc3)cc21
44 nM,–,335 nM,–,156 nM,> 10000 nM,> 10000 nM,–,–,–,> 10000 nM,O=c1cc(N2CCOCC2)nc(Cc2nc3c(-c4cccnc4)cccc3o2)[nH]1
127 nM,–,2270 nM,–,585 nM,> 10000 nM,> 10000 nM,–,–,–,> 10000 nM,O=c1cc(N2CCOCC2)nc(Cc2nc3c(Br)cccc3o2)[nH]1
665 nM,–,2870 nM,–,158 nM,> 10000 nM,> 10000 nM,–,–,–,> 10000 nM,O=c1cc(N2CCOCC2)nc(Cc2nc3ccccc3[nH]2)[nH]1
72 nM,–,166 nM,–,32 nM,> 10000 nM,–,–,–,–,> 10000 nM,Cc1cc(F)ccc1Oc1cccc2c(=O)cc(N3CCOCC3)[nH]c12
88 nM,–,2560 nM,–,373 nM,> 10000 nM,> 10000 nM,–,–,–,> 10000 nM,O=c1cc(N2CCOCC2)nc(Cc2nc3cccc(F)c3o2)[nH]1
202 nM,–,2380 nM,–,425 nM,> 10000 nM,> 10000 nM,–,–,–,7150 nM,Cc1cccc2nc(Cc3nc(N4CCOCC4)cc(=O)[nH]3)oc12
75 nM,–,2750 nM,–,461 nM,3330 nM,> 10000 nM,–,–,–,> 10000 nM,Cc1cccc2oc(Cc3nc(N4CCOCC4)cc(=O)[nH]3)nc12
–,–,6750 nM,–,> 10000 nM,> 10000 nM,> 10000 nM,–,–,–,> 10000 nM,Cn1c(Cc2nc(N3CCOCC3)cc(=O)[nH]2)nc2cc(-c3ccccc3)ccc21

IC50 [1],solubility thermodynamic at 16 h [2],IC50 [3],metabolised [4],IC50 [5],IC50 [6],IC50 [7],IC50 (Cytochrome P450 3A4),Papp [8],metabolised [9],IC50 [10],Compound
143 nM,–,1140 nM,–,526 nM,> 10000 nM,> 10000 nM,–,–,–,9770 nM,Cc1ccc2nc(Cc3nc(N4CCOCC4)cc(=O)[nH]3)oc2c1
475 nM,–,397 nM,–,193 nM,> 10000 nM,> 10000 nM,–,–,–,> 10000 nM,COc1ccc2[nH]c(Cc3nc(N4CCOCC4)cc(=O)[nH]3)nc2c1
63 nM,3 µM,247 nM,78%,99 nM,> 10000 nM,> 10000 nM,> 40000 nM,–,35%,5650 nM,O=c1cc(N2CCOCC2)nc(Cc2nc3ccc(Cl)cc3[nH]2)[nH]1
113 nM,–,2170 nM,–,336 nM,> 10000 nM,> 10000 nM,–,–,–,3330 nM,O=c1cc(N2CCOCC2)nc(Cc2nc3c(-c4ccccn4)cccc3o2)[nH]1
140 nM,–,2210 nM,–,450 nM,> 10000 nM,> 10000 nM,–,–,–,9880 nM,Cc1ccc2[nH]c(Cc3nc(N4CCOCC4)cc(=O)[nH]3)nc2c1
125 nM,–,8450 nM,–,567 nM,> 10000 nM,> 10000 nM,–,–,–,> 10000 nM,O=c1cc(N2CCOCC2)nc(Cc2nc3c(F)cccc3o2)[nH]1
233 nM,–,–,–,960 nM,–,> 10000 nM,–,–,–,> 10000 nM,Cc1ccc2oc(Cc3nc(N4CCOCC4)cc(=O)[nH]3)nc2c1
–,–,5720 nM,–,739 nM,> 10000 nM,> 10000 nM,–,–,–,> 10000 nM,Cn1c(Cc2nc3cc(F)ccc3[nH]2)nc(N2CCOCC2)cc1=O
85 nM,3 µM,442 nM,75%,91 nM,> 10000 nM,> 10000 nM,> 40000 nM,–,27%,5460 nM,O=c1cc(N2CCOCC2)nc(Cc2nc3cc(Br)ccc3[nH]2)[nH]1
49 nM,–,9040 nM,–,126 nM,> 10000 nM,> 10000 nM,–,–,–,> 10000 nM,O=c1cc(N2CCOCC2)nc(Cc2nc3ccc(F)cc3o2)[nH]1
9 nM,–,36 nM,99%,29 nM,> 10000 nM,> 10000 nM,> 40000 nM,2.2 ×10⁻⁶ cm/s,99%,> 10000 nM,O=c1cc(N2CCOCC2)nc(Cc2nc3cc(F)ccc3n2C2CC2)[nH]1
109 nM,–,270 nM,–,205 nM,> 10000 nM,> 10000 nM,–,–,–,> 10000 nM,COCCn1c(Cc2nc(N3CCOCC3)cc(=O)[nH]2)nc2cc(F)ccc21
105 nM,–,84 nM,–,111 nM,> 10000 nM,> 10000 nM,–,–,–,5720 nM,O=c1cc(N2CCOCC2)nc(Cc2nc3ccccc3n2Cc2ccccc2)[nH]1
–,–,118 nM,–,42 nM,> 10000 nM,> 10000 nM,–,–,–,2130 nM,O=C(Cc1nc(N2CCOCC2)cc(=O)[nH]1)Nc1ccccc1
13 nM,3 µM,373 nM,40%,19 nM,> 10000 nM,> 10000 nM,–,31 ×10⁻⁶ cm/s,26%,7750 nM,O=c1cc(N2CCOCC2)nc(Cc2nc3c(-c4ccccc4)cccc3o2)[nH]1
